Results on twelve molecules are retold here after publication PMC2775485 (Journal of medicinal chemistry, 2009).

Bounds are passed on as bounds.

The target in test [1] is human melanocortin 1 receptor (human) (UniProt Q01726).
For test [2], the target named is human melanocortin 3 receptor (human) (UniProt P41968).
For test [3], the target named is T1, hMC4R (Homo sapiens, UniProt P32245). The test is described as follows: Adenylate cyclase. Type of test: cell-based. The note with it: class by maximal cAMP level relative to MTII.
T1 sequence (P32245 whole entry): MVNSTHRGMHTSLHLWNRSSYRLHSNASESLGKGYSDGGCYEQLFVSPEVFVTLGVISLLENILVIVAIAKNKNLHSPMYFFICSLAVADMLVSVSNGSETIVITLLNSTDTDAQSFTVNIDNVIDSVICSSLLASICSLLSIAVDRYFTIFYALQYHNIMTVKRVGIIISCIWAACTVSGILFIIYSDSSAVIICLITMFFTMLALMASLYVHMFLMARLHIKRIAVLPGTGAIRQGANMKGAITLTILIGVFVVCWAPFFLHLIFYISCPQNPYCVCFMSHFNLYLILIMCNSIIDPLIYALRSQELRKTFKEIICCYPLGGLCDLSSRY
Test [4] deals with T2, hMC1R (Homo sapiens, UniProt Q01726). Nature of the test: Adenylate cyclase. It is filed as cell-based. The note with it: for functional class at hMC1R: class by maximal cAMP level relative to MTII; for fold drop in potency: hMC1R, Ac-NDP-γ-MSH-NH2 series, comparator implied: peptide 11. A general note: cAMP levels reflect the balance of adenylyl cyclase and phosphodiesterase activity.
T2 sequence (Q01726 whole entry): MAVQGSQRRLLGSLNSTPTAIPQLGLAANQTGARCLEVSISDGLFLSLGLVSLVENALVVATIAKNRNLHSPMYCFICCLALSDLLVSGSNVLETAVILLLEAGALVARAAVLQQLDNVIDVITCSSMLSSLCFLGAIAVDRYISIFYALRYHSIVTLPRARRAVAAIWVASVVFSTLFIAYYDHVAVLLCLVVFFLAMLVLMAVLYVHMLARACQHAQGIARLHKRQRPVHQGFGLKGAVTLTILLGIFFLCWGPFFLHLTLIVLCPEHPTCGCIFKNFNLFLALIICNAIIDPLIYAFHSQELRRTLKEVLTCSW

Test [5] addresses T1, hMC4R. The test is described as follows: Competition binding on whole HEK293 cells, 125I-[Nle4,DPhe7]-α-MSH. The conditions noted are these: for hMC4R IC50 / IC50: concentration of peptide at 50% specific binding, N=4, NB: No Binding at 10^-5 M; for IC50: read-out: hMC4R IC50.
Test [6] has as its target human melanocortin 4 receptor (human) (UniProt P32245).
Test [7] concerns the target human melanocortin 5 receptor (human) (UniProt P33032).
Test [8] addresses human melanocortin 1 receptor (human) (UniProt Q01726). The test is described as follows: radioligand binding.
The next test addresses hMC3R (Homo sapiens, UniProt P41968). Nature of the test: Competition binding on whole HEK293 cells, 125I-[Nle4,DPhe7]-α-MSH. The note with it: concentration of peptide at 50% specific binding, N=4; NB: No Binding at 10^-5 M.
Test [9] addresses T2, hMC1R. The test is described as above. The note with it: Ac-NDP-γ-MSH-NH2 series, comparator implied: peptide 11.
The target of test [10] is T1, hMC4R. The conditions noted are these: cited from earlier work.

Chain of human melanocortin 1 receptor (human) (Q01726 whole entry): as above
Chain of human melanocortin 5 receptor (human) (P33032 whole entry): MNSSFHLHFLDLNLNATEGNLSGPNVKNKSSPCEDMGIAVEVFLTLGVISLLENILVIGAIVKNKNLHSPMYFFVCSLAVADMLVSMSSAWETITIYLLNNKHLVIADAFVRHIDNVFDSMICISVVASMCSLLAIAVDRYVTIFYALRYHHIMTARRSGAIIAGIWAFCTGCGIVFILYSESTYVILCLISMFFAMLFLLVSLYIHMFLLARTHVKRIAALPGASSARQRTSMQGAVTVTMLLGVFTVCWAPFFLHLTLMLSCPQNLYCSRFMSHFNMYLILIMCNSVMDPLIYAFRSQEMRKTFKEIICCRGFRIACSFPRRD
Chain of human melanocortin 3 receptor (human) (P41968 whole entry): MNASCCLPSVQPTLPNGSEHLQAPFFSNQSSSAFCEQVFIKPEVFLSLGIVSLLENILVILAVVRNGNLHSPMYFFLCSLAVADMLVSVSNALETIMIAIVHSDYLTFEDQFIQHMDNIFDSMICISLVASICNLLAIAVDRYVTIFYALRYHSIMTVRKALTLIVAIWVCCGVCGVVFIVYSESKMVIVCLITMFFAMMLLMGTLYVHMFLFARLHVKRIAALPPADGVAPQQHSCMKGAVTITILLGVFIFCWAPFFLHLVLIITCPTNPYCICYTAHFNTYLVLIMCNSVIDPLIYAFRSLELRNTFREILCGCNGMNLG
Chain of hMC3R (P41968 whole entry): as above
Chain of human melanocortin 4 receptor (human) (P32245 whole entry): as the sequence (P32245 whole entry) above

On to “peptide 9 (SHU9119 with His6 replaced by 4-guanidinyl-Pro)”, for which the cAMP accumulation in receptor-transfected HEK293 cells, EC50 in test [1] stood at 620 nM; in test [2], 130 nM. The same molecule gave a cAMP accumulation, %max of MTII in test [1] of 25%.

`CCCC[C@H](NC(=O)[C@@H](NC(=O)[C@H](Cc1ccc(O)cc1)NC(C)=O)C(C)C)C(=O)NCC(=O)N[C@@H](Cc1c[nH]cn1)C(=O)N[C@H](Cc1ccccc1)C(=O)N1CCC[C@H]1C(=O)N[C@@H](Cc1c[nH]c2ccccc12)C(=O)N[C@@H](CC(=O)O)C(=O)N[C@@H](CCCNC(=N)N)C(=O)N[C@@H](Cc1ccccc1)C(=O)NCC(N)=O` [Peptide 11]: at hMC4R [3], the “functional class at hMC4R” value is reported as “partial agonist (triggers a maximal cAMP level that is 20%-80% of MTII triggered maximal cAMP response)”. Besides, the “functional class at hMC1R” value on hMC1R [4] is “partial agonist (triggers a maximal cAMP level that is 20%-80% of MTII triggered maximal cAMP response)”. Moreover, the “binding affinity at the hMC4R, fold lower/weaker than peptide 1” value on hMC4R [5] (relative to control peptide 1) amounted to 25 fold. Besides, the “binding affinity at the hMC4R, fold lower than peptide 6” value at hMC4R [5] (relative to peptide 6) came out at 8 fold.

The term IC50 denotes the concentration at which inhibition is half-maximal. In the case of “peptide 10 (SHU9119 with His6 replaced by 4-guanidinyl-Pro)”, the figures for the cAMP accumulation in receptor-transfected HEK293 cells, EC50 in [6], in test [1] and in [7] were 1400 nM, 1700 nM and 85 nM, respectively. Moreover, the results for the cAMP accumulation, %max of MTII in [1] and in [7] were 90% and 52%, respectively. In test [2], the cAMP accumulation, %max of MTII (EC50 cell also prints 0) is 0%. The molecule further showed a half-inhibitory concentration (IC50) in test [8] of 1.2 nM.

As to `CCCC[C@H](NC(C)=O)C(=O)N[C@H]1CC(=O)NCCCC[C@@H](C(N)=O)NC(=O)[C@H](Cc2c[nH]c3ccccc23)NC(=O)[C@H](CCCNC(=N)N)NC(=O)[C@@H](Cc2ccccc2)NC(=O)[C@@H]2C[C@@H](NC(=N)N)CN2C1=O` [Peptide 4], the “hMC3R IC50” value at hMC3R is “single-digit nanomolar range”. For the same molecule, the “hMC4R IC50” value at hMC4R [5] is reported as “single-digit nanomolar range”.

Turning to `CCCC[C@H](NC(C)=O)C(=O)N[C@H]1CC(=O)NCCCC[C@@H](C(N)=O)NC(=O)[C@H](Cc2c[nH]c3ccccc23)NC(=O)[C@@H]2CCCN2C(=O)[C@@H](Cc2ccc3ccccc3c2)NC(=O)[C@H](Cc2c[nH]cn2)NC1=O` [Peptide 6], the “functional class at hMC1R” value on hMC1R [4] is on record as “partial agonist (triggers a maximal cAMP level that is 20%-80% of MTII triggered maximal cAMP response)”.

In test [1], “peptide 1 (MTII with Arg8 replaced by Pro)” showed a cAMP accumulation in receptor-transfected HEK293 cells, EC50 above 1000 nM and a cAMP accumulation, %max of MTII of 75%.

As for `CCCC[C@H](NC(=O)[C@@H](NC(=O)[C@H](Cc1ccc(O)cc1)NC(C)=O)C(C)C)C(=O)NCC(=O)N[C@@H](Cc1cnc[nH]1)C(=O)N[C@H](Cc1ccccc1)C(=O)N1C[C@H](NC(=N)N)C[C@H]1C(=O)N[C@@H](Cc1c[nH]c2ccccc12)C(=O)N[C@@H](CC(=O)O)C(=O)N[C@@H](CCCNC(=N)N)C(=O)N[C@@H](Cc1ccccc1)C(=O)NCC(N)=O` [Peptide 12], the “fold drop in binding affinity” value at hMC1R [9] is 4-5 fold. At hMC1R [4], the “functional class at hMC1R” value is “full agonist (80%-100% level of MT II)” and the “fold drop in potency” value was “more than 11 fold”. In addition, the half-maximal inhibitory concentration (IC50) at hMC4R [5] is above 10000 nM.

For `CCCC[C@H](NC(=O)[C@@H](NC(=O)[C@H](Cc1ccc(O)cc1)NC(C)=O)C(C)C)C(=O)NCC(=O)N[C@@H](Cc1cnc[nH]1)C(=O)N[C@H](Cc1ccccc1)C(=O)N1C[C@@H](NC(=N)N)C[C@H]1C(=O)N[C@@H](Cc1c[nH]c2ccccc12)C(=O)N[C@@H](CC(=O)O)C(=O)N[C@@H](CCCNC(=N)N)C(=O)N[C@@H](Cc1ccccc1)C(=O)NCC(N)=O` [Peptide 13], the “fold drop in binding affinity” value on hMC1R [9] is on record as 4-5 fold. For the same molecule, at hMC1R [4], the “functional class at hMC1R” value is recorded as “full agonist (80%-100% level of MT II)” and the “fold drop in potency” value is listed as “more than 11 fold”. Moreover, the IC50 on hMC4R [5] was above 10000 nM.

As to `CCCC[C@H](NC(C)=O)C(=O)N[C@H]1CC(=O)NCCCC[C@@H](C(N)=O)NC(=O)[C@H](Cc2c[nH]c3ccccc23)NC(=O)[C@@H]2C[C@H](NC(=N)N)CN2C(=O)[C@@H](Cc2ccc3ccccc3c2)NC(=O)[C@H](Cc2c[nH]cn2)NC1=O` [Peptide 8], the “functional class at hMC1R” value on hMC1R [4] was “full agonist (80%-100% level of MT II)”.

Consider `CCCC[C@H](NC(C)=O)C(=O)N[C@H]1CC(=O)NCCCC[C@@H](C(N)=O)NC(=O)[C@H](Cc2c[nH]c3ccccc23)NC(=O)[C@@H]2CCCN2C(=O)[C@@H](Cc2ccccc2)NC(=O)[C@H](Cc2c[nH]cn2)NC1=O` [Peptide 1], for which the “functional class at hMC1R” value at hMC1R [4] is reported as “partial agonist (triggers a maximal cAMP level that is 20%-80% of MTII triggered maximal cAMP response)”.

As to `CCCC[C@H](NC(C)=O)C(=O)N[C@H]1CC(=O)NCCCC[C@@H](C(N)=O)NC(=O)[C@H](Cc2c[nH]c3ccccc23)NC(=O)[C@H](CCCNC(=N)N)NC(=O)[C@@H](Cc2ccccc2)NC(=O)[C@@H]2C[C@H](NC(=N)N)CN2C1=O` [Peptide 5], on hMC3R, the “hMC3R IC50” value was “single-digit nanomolar range”. Also, at hMC4R [5], the “hMC4R IC50” value is “single-digit nanomolar range”.

B1: hASIP: Endogenous antagonist of the hMCRs, agouti signaling protein (protein, UniProt P42127 23-132, looked up)
Agouti-signaling protein: HLPPEEKLRDDRSLRSNSSVNLLDVPSVSIVALNKKSKQIGRKAAEKKRSSKKEASMKKVVRPRTPLSAPCVATRNSCKPPAPACCDPCASCQCRFFRSACSCRVLSLNC
For the molecule B1, in the test with hMC4R [10], the “selectivity hMC4R/hMC3R” value is 46 fold.
